Earlier results, collected in patent US20200230059A1, “Solid Micronized Melatonin Composition” (Physician's Seal, LLC, priority 2019, published 2020).
Like-named read-outs stand apart in the source and are kept apart here.

Which results are given for COc1ccc2[nH]cc(CCNC(C)=O)c2c1 [Melatonin]?
solubility (gastric environment, pH approximately 1 to 3): relatively high; solubility (lower GI tract environment, pH approximately 5.5 to 7): decreases even further; solubility (upper GI tract environment, pH approximately 4.5 to 5.5): decreases
